We go through one molecule from PMC9857996, “Inhibition of Iron Release from Donkey Spleen Ferritin through Malt-Derived Protein Z–Ferulic Acid Interactions” (Foods, 2023).

The target of the experiment is T1, protein Z (PZ).
T1 construct: gene PAZ1; single band ~40 kDa; three Trp printed (Trp-150, Trp-186, Trp-257)
In words: Trp fluorescence quenching titration. The experiment is classed as binding, Hordeum vulgare. The following applies: 50.0 mM sodium citrate pH 4.2, 25 °C; 1.0 μM PZ; n = 22.11 ± 2.13 sites per PZ; read-out: K.

`COc1cc(/C=C/C(=O)O)ccc1O` [ferulic acid]: the Kd was 2000 nM.
